Source: patent publication US20110224079A1, “SPIROHETEROCYCLIC N-OXYAMIDES AS PESTICIDES” (SYNGENTA CROP PROTECTION LLC, priority 2008, published 2011)

What was measured:
[1] = test system: Frankliniella occidentalis (western flower thrips); assay: Example B6: activity against Frankliniella occidentalis, bean leaf discs or bean plants; type: in vivo; settings: foliar, 6 days (leaf discs) or 14 days (plants) after infestation, read-out: activity (reduction of treated population)
Protocol: Activity Against Frankliniella occidentalis (Western Flower Thrips)
Bean leaf discs on agar in petri dishes or bean plants in a spray chamber are treated with diluted test solutions. After drying leaf discs are cut and placed in plastic cups on the surface of an agar layer and infested with mixed population. 6 days (leaf discs) or 14 days (plants) after the infestation, samples are checked for reduction of treated population and compared to the non treated population.

[2] = test system: Aphis Craccivora (cowpea aphid); assay: Example B9: activity against Aphis craccivora, sprayed pea seedlings (contact/feeding); type: in vivo; settings: 144 h, infested pea seedlings sprayed, 6 days
Description: (§1) Activity Against Aphis Craccivora (Cowpea Aphid)
(Mixed Population, Contact/Feeding)
6 days after treatment, samples are checked for mortality.

[3] = test system: Aphis Craccivora (cowpea aphid); assay: Example B10: activity against Aphis craccivora, pea seedling roots in test solution (systemic/feeding); type: in vivo; settings: 144 h, roots of infested pea seedlings in test solution, 6 days
Description: as §1
(Mixed Population, Systemic/Feeding)

[4] = test system: Aphis Craccivora (cowpea aphid); assay: Example B11: translaminar activity against Aphis craccivora on French bean leaves; type: in vivo; settings: 120 h, upper leaf side painted, aphids on lower side, 5 days
Protocol: Translaminar Activity Against Aphis Craccivora (Cowpea Aphid)
French bean leaves (Phaseolus vulgaris) are infested with about 20 mixed age individuals on the lower leaf side using clip cages. 1 day after the infestation, the upper side of the leaves is treated with the test solution by painting. 5 days later, samples are checked for mortality.

[5] = test system: Myzus persicae (green peach aphid); assay: Example B17: activity against Myzus persicae on sprayed pepper plants (feeding/residual contact); type: in vivo; settings: 144 h, infested pepper plants sprayed, 6 days
[6] = test system: Myzus persicae (green peach aphid); assay: Example B13: drench activity against Myzus persicae, pea seedlings in field soil; settings: 168 h, read-out: drench activity (mortality)
[7] = test system: Nilaparvata lugens (brown rice planthopper); assay: Example B8: activity against Nilaparvata lugens, sprayed rice seedlings (larvicide, feeding/contact); settings: in Oryza sativa, read-out: activity (mortality, growth regulation, effects on F1 generation)
[8] = test system: Myzus persicae (green peach aphid); assay: Example B2: activity against Myzus persicae, pea seedling roots in test solution (systemic/feeding, curative); settings: 144 h, read-out: activity (mortality)
[9] = test system: Myzus persicae (green peach aphid); assay: Example B1: activity against Myzus persicae, sprayed sunflower leaf discs (feeding/residual contact, preventive); settings: foliar, 144 h, read-out: activity (mortality)
[10] = test system: Tetranychus urticae (two-spotted spider mite); assay: Example B4: activity against Tetranychus urticae, sprayed bean leaf discs (feeding/residual contact, preventive); settings: foliar, 192 h, read-out: activity (egg, larval and adult mortality)
[11] = test system: Thrips tabaci (onion thrips); assay: Example B3: activity against Thrips tabaci, sprayed sunflower leaf discs (feeding/residual contact, preventive); type: in vivo; settings: foliar, 144 h, mixed population, 6 days
Description: Activity Against Thrips tabaci (Onion Thrips)
(Mixed Population, Feeding/Residual Contact Activity, Preventive)

[12] = test system: Bemisia tabaci (tobacco white fly); assay: Example B7: activity against Bemisia tabaci, sprayed bean plants (larvicide, contact/feeding); type: in vivo; settings: 504 h, bean plants with N-2 nymphs sprayed, three weeks, read-out: activity (efficacy, number of emerged adults)
Protocol: Activity Against Bemisia tabaci (Tobacco White Fly)
(Larvicide, Contact/Feeding)
Bean plants are infested with 20-30 adults that were removed after a 4 day egg-laying period. After another 7 days, bean plants with hatched nymphs (N-2) are treated (2 replicates) with the test solutions in a spray chamber. Three weeks later, samples are checked for number of emerged adults. Efficacy was calculated by comparing number of emerged adults in treated and non treated samples.

[13] = test system: Aonidiella Aurantii (red scale); assay: Example B12: activity against Aonidiella aurantii, dipped potato tubers; type: in vivo; settings: 6-8 weeks after application, read-out: activity (number of crawlers of the next generation)
Description: Activity Against Aonidiella Aurantii (Red Scale)
Treatment of potato tubers by dipping the in the test solution. One day later, tubers are infested with about 50 crawlers. 6-8 weeks after application samples are checked for the number of crawlers of the next generation (compared to the non treated samples).

melting point	SMILES	mortality at 400 ppm [2] [%]	mortality at 400 ppm [3] [%]	mortality at 400 ppm [4] [%]	mortality at 200 ppm [5] [%]	mortality at 25 ppm [6] [%]	mortality at 400 ppm [7] [%]	mortality at 400 ppm [8] [%]	mortality at 400 ppm [9] [%]	mortality at 400 ppm [10] [%]	further results
122 to 125 °C	CCOC(=O)OC1=C(c2c(C)cc(Cl)cc2C)C(=O)N(OC)C12CCN(OC)CC2 [P1.114]	–	–	–	–	–	–	–	–	–	–
137 to 139 °C	CON1CCC2(CC1)C(O)=C(c1c(C)cc(Cl)cc1C)C(=O)N2OC1CCCO1 (stereo not drawn) [P2.105]	–	–	–	–	–	–	–	–	–	–
–	CCOC(=O)OC1=C(c2c(C)cc(C)cc2C)C(=O)N(OCOCCOC)C12CCN(OC)CC2 [P1.27]	> 80	> 80	> 80	≥ 80	> 80	> 80	> 80	> 80	> 80	pest or weed control at 400 ppm [1]: > 80%
–	CON1CCC2(CC1)C(O)=C(c1c(C)cc(C)cc1C)C(=O)N2OCC1CC1 [P2.13]	> 80	> 80	> 80	≥ 80	> 80	> 80	> 80	> 80	> 80	mortality at 400 ppm [11]: > 80%; pest or weed control at 400 ppm [1]: > 80%
176 to 178 °C	COCON1C(=O)C(c2c(C)cc(Cl)cc2C)=C(O)C12CCN(OC)CC2 [P2.104]	–	–	–	–	–	–	–	–	–	–
91 to 93 °C	COCON1C(=O)C(c2cc(C)ccc2C)=C(OC)C12CCN(OC)CC2 [P1.31]	–	–	–	–	–	–	–	–	–	–
–	COCCOCON1C(=O)C(c2c(C)cc(C)cc2C)=C(O)C12CCN(OC)CC2 [P2.24]	> 80	> 80	> 80	≥ 80	> 80	> 80	> 80	> 80	> 80	–
155 to 158 °C	COCON1C(=O)C(c2c(F)ccc(C)c2Cl)=C(O)C12CCN(OC)CC2 [P2.60]	–	–	–	–	–	–	–	–	–	–
116 to 119 °C	CCOC(=O)OC1=C(c2c(F)ccc(C)c2Cl)C(=O)N(OCOC)C12CCN(OC)CC2 [P1.61]	–	–	–	–	–	–	–	–	–	–
63 to 64 °C	COCCON1C(=O)C(c2cc(Br)c(C)cc2C)=C(O)C12CCN(OC)CC2 [P2.73]	–	–	–	–	–	–	–	–	–	–
–	CCOC(=O)OC1=C(c2cc(C)ccc2C)C(=O)N(OCCOC)C12CCN(OC)CC2 [P1.3]	> 80	> 80	> 80	≥ 80	> 80	> 80	> 80	> 80	–	–
–	COCON1C(=O)C(c2c(C)cc(C)cc2Cl)=C(O)C12CCN(OC)CC2 [P2.34]	> 80	> 80	> 80	–	> 80	> 80	> 80	> 80	> 80	mortality at 400 ppm [11]: > 80%
135 to 137 °C	CON1CCC2(CC1)C(O)=C(c1c(C)cc(C)cc1C)C(=O)N2OCCOC1CCCCO1 (stereo not drawn) [P2.22]	–	–	–	–	–	–	–	–	–	–
–	CCOC(=O)OC1=C(c2cc(C)ccc2C)C(=O)N(OC)C12CCN(OC)CC2 [P1.1]	> 80	> 80	> 80	≥ 80	> 80	> 80	> 80	> 80	–	–
71 to 74 °C	COCCON1C(=O)C(c2cc(Br)c(F)cc2C)=C(O)C12CCN(OC)CC2 [P2.87]	–	–	–	–	–	–	–	–	–	–
169 to 172 °C	CON1CCC2(CC1)C(O)=C(c1c(C)cc(C)cc1C)C(=O)N2OCC1CCCCC1 [P2.96]	–	–	–	–	–	–	–	–	–	–
–	COCCON1C(=O)C(c2c(C)cc(C)cc2C)=C(O)C12CCN(OC)CC2 [P2.5]	–	> 80	> 80	–	> 80	> 80	> 80	> 80	> 80	pest or weed control at 200 ppm [12]: > 80%; pest or weed control at 200 ppm [13]: > 80%
86 to 87 °C	CON1CCC2(CC1)C(O)=C(c1cc(Br)c(C)cc1C)C(=O)N2OC [P2.75]	–	–	–	–	–	–	–	–	–	–
88 to 92 °C	CON1CCC2(CC1)C(O)=C(c1c(C)cc(Cl)cc1C)C(=O)N2OC [P2.102]	–	–	–	–	–	–	–	–	–	–
93 to 95 °C	COCON1C(=O)C(c2cc(C)ccc2C)=C(OC(=O)CC(C)(C)C)C12CCN(OC)CC2 [P1.5]	–	–	–	–	–	–	–	–	–	–
–	CCOC(=O)OC1=C(c2ccc(C)cc2C)C(=O)N(OC)C12CCN(OC)CC2 [P1.48]	> 80	–	> 80	≥ 80	> 80	> 80	> 80	> 80	> 80	pest or weed control at 200 ppm [12]: > 80%
–	CCOC(=O)OC1=C(c2c(C)cc(C)cc2C)C(=O)N(OCCOC)C12CCN(OC)CC2 [P1.6]	–	–	> 80	–	> 80	> 80	> 80	> 80	> 80	pest or weed control at 200 ppm [12]: > 80%; pest or weed control at 200 ppm [13]: > 80%
–	CCON1C(=O)C(c2c(C)cc(C)cc2C)=C(O)C12CCN(OC)CC2 [P2.9]	> 80	> 80	> 80	≥ 80	> 80	> 80	> 80	> 80	–	pest or weed control at 400 ppm [1]: > 80%; pest or weed control at 200 ppm [12]: > 80%
–	CCOC(=O)OC1=C(c2c(C)cc(C)cc2C)C(=O)N(OCC2CCOCC2)C12CCN(OC)CC2 [P1.82]	> 80	> 80	> 80	≥ 80	> 80	> 80	> 80	> 80	> 80	pest or weed control at 200 ppm [12]: > 80%
–	CCOC(=O)OC1=C(c2c(C)cc(C)cc2C)C(=O)N(OCC2CCCCO2)C12CCN(OC)CC2 (stereo not drawn) [P1.26]	> 80	> 80	> 80	≥ 80	> 80	> 80	> 80	> 80	> 80	–
128 °C (dec.)	COCON1C(=O)C(c2c(C)cc(-c3ccc(Cl)cc3)cc2C)=C(O)C12CCN(OC)CC2 [P2.15, 3-(4′-Chloro-3,5-dimethyl-biphenyl-4-yl)-4-hydroxy-8-methoxy-1-methoxymethoxy-1,8-diaza-spiro[4.5]dec-3-en-2-one]	–	–	–	–	–	–	–	–	–	–
161 to 164 °C	COCCON1C(=O)C(c2c(C)cc(Cl)cc2C)=C(O)C12CCN(OC)CC2 [P2.101]	–	–	–	–	–	–	–	–	–	–
64 to 67 °C	COCON1C(=O)C(c2cc(Br)c(F)cc2C)=C(O)C12CCN(OC)CC2 [P2.89]	–	–	–	–	–	–	–	–	–	–
–	CCOC(=O)OC1=C(c2c(C)ccc(C)c2Cl)C(=O)N(OCCOC)C12CCN(OC)CC2 [P1.60]	> 80	> 80	> 80	–	> 80	> 80	> 80	> 80	> 80	pest or weed control at 400 ppm [1]: > 80%
